Test results taken from article PMC3753236, “Glucocorticosteroids in Nano-Sterically Stabilized Liposomes Are Efficacious for Elimination of the Acute Symptoms of Experimental Cerebral Malaria” (PLoS ONE, 2013).
Counter-ions that a name gives are not always drawn. Like-named read-outs stand apart in the source and are kept apart here.

Legend:
[1] = test system: non-chloroquine resistant P. falciparum; test: P. falciparum culture, 3H-hypoxanthine incorporation; type: cell-based, Plasmodium falciparum; settings: Plasmodium falciparum
Method: The parasite was grown in a human red blood cell culture (RPMI 1640, 7.5% bicarbonate, 50 µM hypoxanthine, 50 µg/ml gentamycin, and 7.5% human plasma) at 1% hematocrit and 2% parasitemia. Cultures containing predominantly ring forms were used; synchronization of the culture was performed if trophozoites represented more than 1–2% of the various developmental stages. Briefly, the culture was centrifuged and the supernatant replaced by 5% (isotonic) sorbitol. After 5 minutes at 37°C the culture was centrifuged again and the supernatant replaced by culture medium to obtain a final 1% hematocrit.
Drug testing was performed in 96-well microtiter plates incubated at 37°C in a 5% O2, 5% CO2, and 90% N2 gas mixture for 72 hours. After 48 hours, 1 µCi ^3H-hypoxanthine was added to each well and the plates were read the next day using a scintillation counter.

[2] = test system: Plasmodium berghei ANKA (PbAus); test: Late-stage treatment of ECM followed by artemisone, PbAus-infected C57Bl/6 mice
Method: (§1) Plasmodium berghei ANKA (PbA; PbA MRA-311, CDC, Atlanta, GA, USA) was maintained in vivo by serial transfer of parasitized erythrocytes (PE) from infected to naïve mice. Experiments were also performed using a second strain of PbA, similarly maintained, and designated PbAus in the text (courtesy of Prof. G. Grau, University of Sydney, Australia).
(§2) Parasitemia was monitored by thin blood smears prepared from tail blood. These were stained with a 25% Giemsa solution, examined under a light microscope, and parasitemia determined as the percent of infected red blood cells per 10,000 erythrocytes. Disease severity was determined according to scoring of neurological symptoms and changes in weight and temperature, as previously described […] Parasitemias above 20% and the absence of neurological symptoms indicated severe anemic malaria.
(§3) For early ECM treatment, injections were given on days 3, 5, 7, and 9 p.i; for late treatment, treatment was given every other day, starting on day 5 p.i. for a total of at least two injections. Infected, non-treated control mice were injected with 5% dextrose or empty nSSL. Clinical signs and parasitemias were monitored and disease severity scored as described […] At each time-point, at least 3 mice from each group were chosen at random, deeply anesthetized, and brains were removed following intracardial perfusion (using saline, if organs were destined for real-time (rt)PCR analysis, or saline/formalin, if organs were destined for histopathological analysis). Organs destined for rtPCR analysis were snap-frozen in liquid nitrogen and stored at −80°C until use. Organs destined for immunohistology were immediately immersed in cryoprotectant solution (see below).

[3] = test system: Plasmodium berghei ANKA (PbAus); test: Early treatment of ECM, PbAus-inoculated C57Bl/6 mice (with sequential artemisone)
Method: as §1, §2, §3

[4] = test system: Plasmodium berghei ANKA (PbA); test: Early treatment of experimental cerebral malaria (ECM), ICR mice infected with PbA
Method: as §1, §2
as §3, with “described […] Surviving mice were treated with 2×10 mg/kg/d artemisone by intraperitoneal injection in order to achieve cure; mice were monitored for four weeks post-artemisone treatment in order to allow detection of possible late recrudescence.” for “described”

[5] = cited from earlier work
ECM = test system: ECM; set-up: method as in Clemmer et al. [28]; settings: after the appearance of clinical signs of neuropathology; ref Clemmer et al. [28]; cited from earlier work
[6] = 72 h culture, 3H-hypoxanthine, read-out: IC50

Structure (SMILES): C[C@@H]1CC[C@H]2[C@@H](C)C(=O)O[C@@H]3O[C@@]4(C)CC[C@@H]1[C@]32OO4 [Artemisinin]
- IC50 [1, 6]: 0.13 nM

Structure (SMILES): C[C@H]1[C@H](N2CCS(=O)(=O)CC2)O[C@@H]2O[C@@]3(C)CC[C@H]4[C@H](C)CC[C@@H]1[C@@]24OO3 [Artemisone, reference compound]
- IC50 [1, 6]: 0.4 nM
- Outcome of artemisone after nSSL-BMS started day 5 p.i. ([2]; 2×20 mg/kg/d artemisone on days 11–15 p.i., monitored three weeks): complete cure
- Outcome of artemisone after nSSL-BMS started day 7 p.i. ([2]; all remaining mice died of severe anemic malaria): ineffective
- Outcome of artemisone after nSSL-BMS started day 6 p.i. ([2]; subsequent artemisone administration): cure in all mice
- Outcome of artemisone treatment following nSSL-BMS ([3]; 2×20 mg/kg artemisone i.p. days 11–15 p.i. after early 10 mg/kg nSSL-BMS, monitored four weeks for recrudescence): complete cure
- Time to zero parasitemia after the first injection (majority of cases) ([3]; 2×20 mg/kg artemisone i.p. days 11–15 p.i. following early 10 mg/kg nSSL-BMS): ≤ 24 h
- Mice that relapsed and died of ECM (of the total 17 administered artemisone) ([3]; 2×20 mg/kg/d artemisone days 11–15 p.i. after 10 mg/kg free or nSSL-BMS): One
- Outcome of artemisone monotherapy ([3]; beginning on day 11 p.i.): ineffective

Structure (SMILES): CCN(CC)CCCC(C)Nc1ccnc2cc(Cl)ccc12 (stereo not shown) [Chloroquine, chloroquine]
- IC50 [1]: 40 nM

Structure (SMILES): C[C@H]1[C@@H](O)O[C@@H]2O[C@@]3(C)CC[C@H]4[C@H](C)CC[C@@H]1[C@@]24OO3 [Dihydroartemisinin, dihydroartemisinin]
- IC50 [1, 6]: 0.1 nM

Structure (SMILES): C[C@H]1C[C@@H]2[C@H]([C@@H](O)C[C@@]3(C)[C@H]2CC[C@]3(O)C(=O)COC(=O)CCC(=O)O)[C@@]2(C)C=CC(=O)C=C12 [MPS, methylprednisolone hemisuccinate sodium salt]
- IC50 [1, 6]: 14000 nM
- Survival rate on day 11 ([4]; 10 mg/kg/d on days 3, 5, 7, 9 p.i.): 33%
- Toxicity in ECM mice ([4]; 25 mg/kg/d, preliminary experiments): mild toxicity
- Potency relative to hydrocortisone ([5]; ref [14]): ~5 times

Structure (SMILES): C=C[C@H]1C[N@@]2CC[C@H]1C[C@H]2[C@H](O)c1ccnc2ccc(OC)cc12 [Quinine, quinine]
- IC50 [1, 6]: 380 nM

Structure (SMILES): CO[C@H]1O[C@@H]2O[C@@]3(C)CC[C@H]4[C@H](C)CC[C@@H]([C@H]1C)[C@@]24OO3 [artemether]
- Success rate of ECM rescue therapy (ECM): 43–46%

Structure (SMILES): C[C@H]1[C@H](OC(=O)CCC(=O)O)O[C@@H]2O[C@@]3(C)CC[C@H]4[C@H](C)CC[C@@H]1[C@@]24OO3 [artesunate]
- Success rate of ECM rescue therapy (ECM): 43–46%

Structure (SMILES): C[C@H]1C[C@H]2[C@@H]3CCC4=CC(=O)C=C[C@]4(C)[C@@]3(F)[C@@H](O)C[C@]2(C)[C@@]1(O)C(=O)CO [β-methasone]
- Potency relative to hydrocortisone ([5]; ref [15]): 25–30 fold
